Measured values from patent US12497365B2, “4-pyridinyl formamide compound or derivative thereof, preparation method therefor, herbicidal composition and use thereof” (Qingdao Kingagroot Chemical Compound Co., Ltd., priority 2019, dated 2025).

What was measured:
Experiment in all cases: Weeding effect in post-emergence stage
Assay type in all cases: in vivo
Conditions in all cases: active ingredient 2000 g/ha, 3 weeks after application, fresh weight control rate
[1] = system: Abutilon theophrasti
From the text: (§1) The activity level criteria for plant damage (i.e., growth control rate) are as follows:
(§2) The above growth control rates are fresh weight control rates.
(§3) Experiment on weeding effect in post-emergence stage: monocotyledonous and dicotyledonous weed seeds and major crop seeds (wheat, corn, rice, soybean, cotton, oilseed rape, millet, sorghum) were placed in plastic pots filled with soil, then covered with 0.5-2 cm of soil, allowed to grow in a good greenhouse environment. After 2 weeks of sowing, the test plants were treated in the 2-3 leaf stage. The tested compounds of the present invention were respectively dissolved in acetone at the dosage of 2000, 1000, 500, 250, 125 g/ha, then added with Tween 80 and 1.5 liter/ha of emulsifiable concentrate of methyl oleate as synergist, diluted with a certain amount of water to obtain a solution with a certain concentration, and sprayed with a spray tower onto the plants. After the application, the plants were cultured for 3 weeks in the greenhouse, and then the experimental results were listed in Table 1.

[2] = system: Amaranthus retroflexus L.
From the text: as §1, §2, §3

[3] = system: Chenopodium album
From the text: as §1, §2, §3

[4] = system: Descurainia sophia
From the text: as §1, §2, §3

Compound | Weeding effect, activity level (growth control rate), Abutilon theophrasti [1] | Weeding effect, activity level (growth control rate), Amaranthus retroflexus L. [2] | Weeding effect, activity level (growth control rate), Chenopodium album [3] | Weeding effect, activity level (growth control rate), Descurainia sophia [4]
Cc1nccc(C(=O)Nc2nnnn2C)c1Cl [Compound 1-1] | 5 (Level 5: growth control rate is above 85%) | 5 (Level 5: growth control rate is above 85%) | 5 (Level 5: growth control rate is above 85%) | 5 (Level 5: growth control rate is above 85%)
Cn1nnnc1NC(=O)c1ccnc(C(C)(C)C)c1Cl [Compound 1-2] | 5 (Level 5: growth control rate is above 85%) | 5 (Level 5: growth control rate is above 85%) | 5 (Level 5: growth control rate is above 85%) | 5 (Level 5: growth control rate is above 85%)
Cn1nnnc1NC(=O)c1ccnc(C2CC2)c1Cl [Compound 1-3] | 5 (Level 5: growth control rate is above 85%) | 5 (Level 5: growth control rate is above 85%) | 5 (Level 5: growth control rate is above 85%) | 5 (Level 5: growth control rate is above 85%)
Cn1nnnc1NC(=O)c1ccnc(C2CCCCC2)c1Cl [Compound 1-4] | 5 (Level 5: growth control rate is above 85%) | 5 (Level 5: growth control rate is above 85%) | 5 (Level 5: growth control rate is above 85%) | 5 (Level 5: growth control rate is above 85%)
Cn1nnnc1NC(=O)c1ccnc(C2=CCCCC2)c1Cl [Compound 1-5] | 5 (Level 5: growth control rate is above 85%) | 5 (Level 5: growth control rate is above 85%) | 5 (Level 5: growth control rate is above 85%) | 5 (Level 5: growth control rate is above 85%)
Cn1nnnc1NC(=O)c1ccnc(C2=CCN(C(=O)OC(C)(C)C)CC2)c1Cl [Compound 1-6] | 5 (Level 5: growth control rate is above 85%) | 5 (Level 5: growth control rate is above 85%) | 5 (Level 5: growth control rate is above 85%) | 5 (Level 5: growth control rate is above 85%)
Cn1nnnc1NC(=O)c1ccnc(C2=CCOCC2)c1Cl [Compound 1-7] | 5 (Level 5: growth control rate is above 85%) | 5 (Level 5: growth control rate is above 85%) | 5 (Level 5: growth control rate is above 85%) | 5 (Level 5: growth control rate is above 85%)
Cn1nnnc1NC(=O)c1ccnc(-c2ccccc2)c1Cl [Compound 1-8] | 5 (Level 5: growth control rate is above 85%) | 5 (Level 5: growth control rate is above 85%) | 5 (Level 5: growth control rate is above 85%) | 5 (Level 5: growth control rate is above 85%)
Cc1ccccc1-c1nccc(C(=O)Nc2nnnn2C)c1Cl [Compound 1-9] | 5 (Level 5: growth control rate is above 85%) | 5 (Level 5: growth control rate is above 85%) | 5 (Level 5: growth control rate is above 85%) | 5 (Level 5: growth control rate is above 85%)
Cc1cccc(-c2nccc(C(=O)Nc3nnnn3C)c2Cl)c1 [Compound 1-10] | 5 (Level 5: growth control rate is above 85%) | 5 (Level 5: growth control rate is above 85%) | 5 (Level 5: growth control rate is above 85%) | 5 (Level 5: growth control rate is above 85%)
Cc1ccc(-c2nccc(C(=O)Nc3nnnn3C)c2Cl)cc1 [Compound 1-11] | 5 (Level 5: growth control rate is above 85%) | 5 (Level 5: growth control rate is above 85%) | 5 (Level 5: growth control rate is above 85%) | 5 (Level 5: growth control rate is above 85%)
CCc1ccccc1-c1nccc(C(=O)Nc2nnnn2C)c1Cl [Compound 1-12] | 5 (Level 5: growth control rate is above 85%) | 5 (Level 5: growth control rate is above 85%) | 5 (Level 5: growth control rate is above 85%) | 5 (Level 5: growth control rate is above 85%)
CCCCCc1ccc(-c2nccc(C(=O)Nc3nnnn3C)c2Cl)cc1 [Compound 1-13] | 5 (Level 5: growth control rate is above 85%) | 5 (Level 5: growth control rate is above 85%) | 5 (Level 5: growth control rate is above 85%) | 5 (Level 5: growth control rate is above 85%)
CCCC1CCC(c2ccc(-c3nccc(C(=O)Nc4nnnn4C)c3Cl)cc2)CC1 (stereo not drawn) [Compound 1-14] | 5 (Level 5: growth control rate is above 85%) | 5 (Level 5: growth control rate is above 85%) | 5 (Level 5: growth control rate is above 85%) | 5 (Level 5: growth control rate is above 85%)
Cn1nnnc1NC(=O)c1ccnc(-c2cccc(F)c2)c1Cl [Compound 1-16] | 5 (Level 5: growth control rate is above 85%) | 5 (Level 5: growth control rate is above 85%) | 5 (Level 5: growth control rate is above 85%) | 5 (Level 5: growth control rate is above 85%)
Cn1nnnc1NC(=O)c1ccnc(-c2ccccc2Cl)c1Cl [Compound 1-18] | 5 (Level 5: growth control rate is above 85%) | 5 (Level 5: growth control rate is above 85%) | 5 (Level 5: growth control rate is above 85%) | 5 (Level 5: growth control rate is above 85%)
Cn1nnnc1NC(=O)c1ccnc(-c2cccc(Cl)c2)c1Cl [Compound 1-19] | 5 (Level 5: growth control rate is above 85%) | 5 (Level 5: growth control rate is above 85%) | 5 (Level 5: growth control rate is above 85%) | 5 (Level 5: growth control rate is above 85%)
Cn1nnnc1NC(=O)c1ccnc(-c2ccc(Cl)cc2)c1Cl [Compound 1-20] | 5 (Level 5: growth control rate is above 85%) | 5 (Level 5: growth control rate is above 85%) | 5 (Level 5: growth control rate is above 85%) | 5 (Level 5: growth control rate is above 85%)
Cn1nnnc1NC(=O)c1ccnc(-c2cccc(Br)c2)c1Cl [Compound 1-21] | 5 (Level 5: growth control rate is above 85%) | 5 (Level 5: growth control rate is above 85%) | 5 (Level 5: growth control rate is above 85%) | 5 (Level 5: growth control rate is above 85%)
Cn1nnnc1NC(=O)c1ccnc(-c2ccc(Br)cc2)c1Cl [Compound 1-22] | 5 (Level 5: growth control rate is above 85%) | 5 (Level 5: growth control rate is above 85%) | 5 (Level 5: growth control rate is above 85%) | 5 (Level 5: growth control rate is above 85%)
Cn1nnnc1NC(=O)c1ccnc(-c2ccccc2CBr)c1Cl [Compound 1-23] | 5 (Level 5: growth control rate is above 85%) | 5 (Level 5: growth control rate is above 85%) | 5 (Level 5: growth control rate is above 85%) | 5 (Level 5: growth control rate is above 85%)
